Counter-ions that a name gives are not always drawn.
These compounds were tested against kinase domain of IRE1 alpha (His-tagged kinase dead construct KR, AA G547-L977, D688N) (Homo sapiens (Human), UniProt O75460, D688N) (assay: IRE1α TR-FRET competition binding assay). Conditions: competition with Kinase Tracer 236, 0.1 μM; one hour at room temperature.
Summary of the method: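 Compound displacement of an ATP-site fluorescent tracer (0.1 μM final) measured by TR-FRET after 1 h at room temperature. Protein, a His-tagged D688N kinase/RNase construct from Sf9 cells (0.006 μM final), was pre-bound 1 h at 4° C to Eu anti-His antibody (0.002 μM) in pH 7.5 HEPES buffer.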

kinase domain of IRE1 alpha (His-tagged kinase dead construct KR, AA G547-L977, D688N), sequence (O75460 547-977 D688N): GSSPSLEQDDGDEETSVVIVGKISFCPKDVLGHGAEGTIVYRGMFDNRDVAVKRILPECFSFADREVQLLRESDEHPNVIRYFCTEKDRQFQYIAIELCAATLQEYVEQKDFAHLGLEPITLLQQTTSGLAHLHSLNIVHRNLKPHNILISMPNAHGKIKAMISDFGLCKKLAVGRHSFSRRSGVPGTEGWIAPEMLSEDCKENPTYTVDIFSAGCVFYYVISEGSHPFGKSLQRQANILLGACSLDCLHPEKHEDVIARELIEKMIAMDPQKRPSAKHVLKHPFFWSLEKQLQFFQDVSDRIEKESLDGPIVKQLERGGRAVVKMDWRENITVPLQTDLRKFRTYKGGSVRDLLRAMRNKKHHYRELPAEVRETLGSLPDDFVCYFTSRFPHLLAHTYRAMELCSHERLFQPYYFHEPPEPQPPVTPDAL

First: Cc1cc(Oc2ncccc2-c2ccnc(N[C@H]3CCCNC3)n2)c(C)cc1NS(=O)(=O)c1ccccc1Cl [Compound 125, (S)-2-chloro-N-(2,5-dimethyl-4-((3-(2-(piperidin-3-ylamino)pyrimidin-4-yl)pyridin-2-yl)oxy)phenyl)benzenesulfonamide]
Second: Cc1c(NS(=O)(=O)c2ccccc2Cl)cccc1Oc1ncccc1-c1ccnc(N[C@H]2CCCNC2)n1 [Compound 139, (S)-2-Chloro-N-(2-methyl-3-((3-(2-(piperidin-3-ylamino)pyrimidin-4-yl)pyridin-2-yl)oxy)phenyl)benzenesulfonamide hydrochloride]
The IC50 of the first is 1.7-fold lower: 27 nM for the first, 46 nM for the second.

Compared with `COCC1CNCC(Nc2nccc(-c3cccnc3Oc3cc(F)c(NS(=O)(=O)Cc4ccccc4)c(F)c3F)n2)C1` (single isomer, unassigned) [Compound 329, 1-Phenyl-N-(2,3,6-trifluoro-4-((3-(2-((5-(methoxymethyl)piperidin-3-yl)amino)pyrimidin-4-yl)pyridin-2-yl)oxy)phenyl)methanesulfonamide], `O=S(=O)(Cc1ccccc1)Nc1c(F)cc(Oc2ncccc2-c2ccnc(N[C@@H]3CNC[C@H](F)C3)n2)c(F)c1F` [Compound 259, 1-Phenyl-N-(2,3,6-trifluoro-4-((3-(2-(((3S,5R)-5-fluoropiperidin-3-yl)amino)pyrimidin-4-yl)pyridin-2-yl)oxy)phenyl)methanesulfonamide] is 6-fold lower in IC50: 12 nM for the first, 2 nM for the second.

`O=S(=O)(Cc1cccc(C(F)(F)F)c1)Nc1c(F)cc(Oc2ncccc2-c2ccnc(N[C@@H]3CNC[C@@H](F)C3)n2)c(F)c1F` [Compound 374, N-(2,3,6-Trifluoro-4-((3-(2-(((3S,5S)-5-fluoropiperidin-3-yl)amino)pyrimidin-4-yl)pyridin-2-yl)oxy)phenyl)-1-(3-(trifluoromethyl)phenyl)methanesulfonamide] and `O=S(=O)(Cc1ccccc1C(F)(F)F)Nc1c(F)cc(Oc2ncccc2-c2ccnc(N[C@@H]3CNC[C@@H](F)C3)n2)c(F)c1F` [Compound 373, N-(2,3,6-Trifluoro-4-((3-(2-(((3S,5S)-5-fluoropiperidin-3-yl)amino)pyrimidin-4-yl)pyridin-2-yl)oxy)phenyl)-1-(2-(trifluoromethyl)phenyl)methanesulfonamide] are within 1.5-fold of each other in IC50: 0.2 nM for the first, 0.3 nM for the second.

`O=S(=O)(CCC1CC1)Nc1c(F)cc(Oc2ncccc2-c2ccnc(N[C@@H]3CNC[C@@H](F)C3)n2)c(F)c1F` [Compound 267, 2-Cyclopropyl-N-(2,3,6-trifluoro-4-((3-(2-(((3S,5S)-5-fluoropiperidin-3-yl)amino)pyrimidin-4-yl)pyridin-2-yl)oxy)phenyl)ethane-1-sulfonamide] and `CC(F)(F)CCS(=O)(=O)Nc1c(F)cc(Oc2ncccc2-c2ccnc(N[C@@H]3CNC[C@@H](F)C3)n2)c(F)c1F` [Compound 253, 3,3-Difluoro-N-(2,3,6-trifluoro-4-((3-(2-(((3S,5S)-5-fluoropiperidin-3-yl)amino)pyrimidin-4-yl)pyridin-2-yl)oxy)phenyl)butane-1-sulfonamide] are within 1.5-fold of each other in IC50: 2.2 nM for the first, 1.9 nM for the second.

`O=S(=O)(Nc1c(F)cc(Oc2ncccc2-c2ccnc(N[C@@H]3CNC[C@@H](F)C3)n2)c(F)c1F)C1CCCCC1` [Compound 368, N-(2,3,6-Trifluoro-4-((3-(2-(((3S,5S)-5-fluoropiperidin-3-yl)amino)pyrimidin-4-yl)pyridin-2-yl)oxy)phenyl)cyclohexanesulfonamide] and `O=S(=O)(CC12CCC(CC1)C2)Nc1c(F)cc(Oc2ncccc2-c2ccnc(N[C@@H]3CNC[C@@H](F)C3)n2)c(F)c1F` [Compound 376, 1-(Bicyclo[2.2.1]heptan-1-yl)N-(2,3,6-trifluoro-4-((3-(2-(((3S,5S)-5-fluoropiperidin-3-yl)amino)pyrimidin-4-yl)pyridin-2-yl)oxy)phenyl)methanesulfonamide] are the same in IC50: 0.2 nM for the first, 0.2 nM for the second.

`COc1cccc(CS(=O)(=O)Nc2c(F)cc(Oc3ncccc3-c3ccnc(N[C@@H]4CNC[C@@](C)(F)C4)n3)c(F)c2F)c1` [Compound 291, 1-(3-Methoxyphenyl)-N-(2,3,6-trifluoro-4-((3-(2-(((3S,5S)-5-fluoro-5-methylpiperidin-3-yl)amino)pyrimidin-4-yl)pyridin-2-yl)oxy)phenyl)methanesulfonamide] and `COc1cccc(CS(=O)(=O)Nc2c(F)cc(Oc3ncccc3-c3ccnc(N[C@@H]4CNC[C@@H](F)C4)n3)c(F)c2F)c1` [Compound 385, 1-(3-Methoxyphenyl)-N-(2,3,6-trifluoro-4-((3-(2-(((3S,5S)-5-fluoropiperidin-3-yl)amino)pyrimidin-4-yl)pyridin-2-yl)oxy)phenyl)methanesulfonamide] are within 1.5-fold of each other in IC50: 0.28 nM for the first, 0.2 nM for the second.

Going from `CCCS(=O)(=O)Nc1cc(C)c(Oc2ncccc2-c2ccnc(N[C@H]3CCCNC3)n2)cc1C` [Compound 126, (S)-N-(2,5-Dimethyl-4-((3-(2-(piperidin-3-ylamino)pyrimidin-4-yl)pyridin-2-yl)oxy)phenyl)propane-1-sulfonamide] to `O=S(=O)(CC1CCCCC1)Nc1ccc(Oc2ncccc2-c2ccnc(N[C@H]3CCCNC3)n2)c(F)c1F` [Compound 145, (S)-1-Cyclohexyl-N-(2,3-difluoro-4-((3-(2-(piperidin-3-ylamino)pyrimidin-4-yl)pyridin-2-yl)oxy)phenyl)methanesulfonamide hydrochloride], the IC50 falls from 280 nM to 7.8 nM (36-fold).

Compared with `O=S(=O)(Cc1ccc(F)cc1F)Nc1c(F)cc(Oc2ncccc2-c2ccnc(N[C@@H]3CNC[C@@H](F)C3)n2)c(F)c1F` [Compound 351, 1-(2,4-Difluorophenyl)-N-[2,3,6-trifluoro-4-[[3-[2-[[(3S,5S)-5-fluoro-3-piperidyl]amino]pyrimidin-4-yl]-2-pyridyl]oxy]phenyl]methanesulfonamide], `O=S(=O)(Cc1ccc(C(F)F)cc1)Nc1c(F)cc(Oc2ncccc2-c2ccnc(N[C@@H]3CNC[C@@H](F)C3)n2)c(F)c1F` [Compound 371, 1-(4-(Difluoromethyl)phenyl)-N-(2,3,6-trifluoro-4-((3-(2-(((3S,5S)-5-fluoropiperidin-3-yl)amino)pyrimidin-4-yl)pyridin-2-yl)oxy)phenyl)methanesulfonamide] is 3-fold lower in IC50: 0.91 nM for the first, 0.3 nM for the second. The second is the more potent here.

Going from `O=S(=O)(Cc1ccccc1)Nc1ccc(Oc2ncccc2-c2ccnc(N[C@H]3CCNC3)n2)c(F)c1F` [Compound 167, (S)—N-(2,3-Difluoro-4-((3-(2-(pyrrolidin-3-ylamino)pyrimidin-4-yl)pyridin-2-yl)oxy)phenyl)-1-phenylmethanesulfonamide] to `C[C@H]1CNC[C@@H](Nc2nccc(-c3cccnc3Oc3ccc(NS(=O)(=O)Cc4ccccc4)c(F)c3F)n2)C1` [Compound 111, N-(2,3-difluoro-4-((3-(2-(((3S,5R)-5-methylpiperidin-3-yl)amino)pyrimidin-4-yl)pyridin-2-yl)oxy)phenyl)-1-phenylmethanesulfonamide hydrochloride], the IC50 falls from 17 nM to 4.4 nM (3.9-fold). The second is the more potent here.

First: CC(F)C1CNCC(Nc2nccc(-c3cccnc3Oc3cc(F)c(NS(=O)(=O)Cc4ccccc4)c(F)c3F)n2)C1 (single isomer, unassigned) [Compound 345, 1-Phenyl-N-(2,3,6-trifluoro-4-((3-(2-((5-(1-fluoroethyl)piperidin-3-yl)amino)pyrimidin-4-yl)pyridin-2-yl)oxy)phenyl)methanesulfonamide hydrochloride]
Second: CC1(CF)CNCC(Nc2nccc(-c3cccnc3Oc3cc(F)c(NS(=O)(=O)Cc4ccccc4)c(F)c3F)n2)C1 (single isomer, unassigned) [Compound 294, 1-Phenyl-N-(2,3,6-trifluoro-4-((3-(2-((5-(fluoromethyl)-5-methylpiperidin-3-yl)amino)pyrimidin-4-yl)pyridin-2-yl)oxy)phenyl)methanesulfonamide]
The IC50 of the first is 3.5-fold lower: 0.17 nM for the first, 0.59 nM for the second. The first is the more potent here.

Compared with `CN1CCC(Nc2nccc(-c3cccnc3Oc3ccc(NS(=O)(=O)Cc4ccccc4)c(F)c3F)n2)CC1` [Compound 168, N-(2,3-difluoro-4-((3-(2-((1-methylpiperidin-4-yl)amino)pyrimidin-4-yl)pyridin-2-yl)oxy)phenyl)-1-phenylmethanesulfonamide], `O=S(=O)(Cc1cccnc1)Nc1ccc(Oc2ncccc2-c2ccnc(N[C@H]3CCCNC3)n2)c(F)c1F` [Compound 233, (S)-N-(2,3-difluoro-4-(3-(2-(piperidin-3-ylamino)pyrimidin-4-yl)pyridin-2-yloxy)phenyl)-1-(pyridin-3-yl)methanesulfonamide] is 7.4-fold lower in IC50: 67 nM for the first, 9 nM for the second. The second is the more potent here.

Going from `O=S(=O)(Cc1ccccn1)Nc1c(F)cc(Oc2ncccc2-c2ccnc(N[C@@H]3CNC[C@@H](F)C3)n2)c(F)c1F` [Compound 356, 1-(2-Pyridyl)-N-[2,3,6-trifluoro-4-[[3-[2-[[(3S,5S)-5-fluoro-3-piperidyl]amino]pyrimidin-4-yl]-2-pyridyl]oxy]phenyl]methanesulfonamide] to `O=S(=O)(Cc1ccccc1F)Nc1c(F)cc(Oc2ncccc2-c2ccnc(NC3CNCC(C4CC4)C3)n2)c(F)c1F` (single isomer, unassigned) [Compound 324, N-(4-((3-(2-((5-Cyclopropylpiperidin-3-yl)amino)pyrimidin-4-yl)pyridin-2-yl)oxy)-2,3,6-trifluorophenyl)-1-(2-fluorophenyl)methanesulfonamide], the IC50 rises from 0.2 nM to 0.4 nM (2-fold). The first is the more potent here.

First: Cc1cc(CS(=O)(=O)Nc2c(F)cc(Oc3ncccc3-c3ccnc(N[C@@H]4CNC[C@@](C)(F)C4)n3)c(F)c2F)no1 [Compound 203, 1-(5-methylisoxazol-3-yl)-N-(2,3,6-trifluoro-4-((3-(2-(((3S,5S)-5-fluoro-5-methylpiperidin-3-yl)amino)pyrimidin-4-yl)pyridin-2-yl)oxy)phenyl)methanesulfonamide]
Second: O=S(=O)(Nc1ccc(F)c(Oc2ncccc2-c2ccnc(N[C@H]3CCCNC3)n2)c1)c1ccccc1Cl [Compound 128, (S)-2-Chloro-N-(4-fluoro-3-((3-(2-(piperidin-3-ylamino)pyrimidin-4-yl)pyridin-2-yl)oxy)phenyl)benzenesulfonamide]
The IC50 of the first is 3.3-fold lower: 3.3 nM for the first, 11 nM for the second. The first is the more potent here.

Reference: patent publication US12071425B2 (Genentech, Inc., priority 2018, dated 2024)
